The values below come from patent publication US20230287051A1, “INHIBITORS OF COMPLEMENT FACTOR C3 AND THEIR MEDICAL USES” (ZP SPV 3 K/S, priority 2020, published 2023).

Molecules are shown by their SMILES. Numbered stars: 1 amine (or outer) side, 2 acyl side, 3 side chain; on linkers, the order of the positions; unused ones are H or OH. Bridge positions count the residues as written; N and C are the ends. Square brackets hold non-standard residues; d marks the D form. Side chains are listed from the residue outwards. Peptide text beside a SMILES is read from it. * marks the point of attachment. Trp(1-Me) = Cn1cc(C[C@H](N)C(=O)O)c2ccccc21; C18 diacid = O=C(O)CCCCCCCCCCCCCCCCC(=O)*; γGlu = O=C(O)[C@H](CCC(=O)[*:2])N[*:1]; AEEA = NCCOCCOCC(=O)O; CH2 = C([*:1])[*:2]; Sar = CNCC(=O)O

Experiment [1] deals with classical complement pathway. As to the kind of experiment: In vitro haemolysis assay (inhibition of classical complement pathway). In kind it is cell-based. Conditions: human serum, sensitized sheep RBC, 30 minutes at 37° C., absorbance at 405 nm, n=>2; read-out: IC50, inhibition of hemolysis. The essentials:
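Compounds in 9-point serial dilution in Tris/casein buffer pH 7.4 (Ca2+/Mg2+) preincubated 15 min at room temperature with diluted human serum (dilution giving 70-90% maximal haemolysis), then antibody-sensitized sheep RBCs added, 30 min at 37° C. EDTA stop; supernatant haemoglobin read at 405 nm. IC50 from 4PL fit, normalized to controls, n≥2.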

The target of experiment [2] is T1, Human C3 (Homo sapiens, UniProt P01024).
T1 construct: purchased Complement tech A113c
Briefly: Affinity measurement by surface plasmon resonance with immobilized C3. Conditions: SPR, immobilized human C3, 25° C., 1:1 Langmuir binding model, n=>2. The procedure:
Surface plasmon resonance (SPR) was used to characterize peptides with respect to their binding affinity (Kd) for C3.
For interaction experiments, a multi-cycle experiment approach was used and performed using a BiacoreX100™ instrument (GE Healthcare) at 25° C. Peptides were injected in increasing concentration series (5 different concentrations and buffer reference) for 180 seconds at a flow rate of 30 μL/min in a buffer consisting of 50 mM Tris buffer at pH 7.4, with 150 mM NaCl and 0.05% Tween20. This was followed by a dissociation period for 10 min. The C3 surface was regenerated between runs by two consecutive injections of 3 M MgCl2 each for 45 seconds.
Sensorgrams were double-referenced (reference surface, blanks) prior to analysis of the kinetic profiles by globally fitting data to a 1:1 Langmuir binding model to obtain association and dissociation rates for calculation of the equilibrium dissociation constant Kd (Table 3). Each peptide was tested at in at least 2 independent experiments.

On to `CC[C@H](C)[C@@H]1NC(=O)[C@@H](NC(=O)[C@H](Cc2ccccc2)NC(=O)CNC(=O)[C@H](CO)NC(=O)[C@H](CCC(=O)O)NC(=O)CNC(=O)[C@H](CCC(=O)O)NC(C)=O)CSCSC[C@@H](C(=O)N[C@H](C(=O)N[C@@H](CCC(=O)O)C(=O)NCC(=O)N[C@@H](CCC(=O)O)C(=O)NCCOCCOCC(=O)NCCOCCOCC(=O)N[C@@H](CCCCNC(=O)CC[C@H](NC(=O)CNC(=O)CC[C@H](NC(=O)CCCCCCCCCCCCCCCCC(=O)O)C(=O)O)C(=O)O)C(N)=O)[C@@H](C)O)NC(=O)[C@H](CCCNC(=N)N)NC(=O)[C@H](Cc2c[nH]cn2)NC(=O)[C@H](CCC(=O)O)NC(=O)CN(C)C(=O)[C@H](Cc2c[nH]c3ccccc23)NC(=O)[C@H](CC(=O)O)NC(=O)[C@H](CCC(N)=O)NC(=O)[C@H](Cc2cn(C)c3ccccc23)NC1=O` [Compound 27, Ac-EGESGF[C(1)]I[1-Me-Trp]QDW[Sar]EHR[C(1)]TEGE[Peg3][Peg3]-K([17-Carboxy-heptadecanoyl][yGlu]G[yGlu])-NH2] (Ac-EGESGFCI[Trp(1-Me)]QDW[Sar]EHRCTEGE[AEEA][AEEA]K([γGlu-Gly-γGlu-C18 diacid])-NH2; linker 7-17 via CH2), for which the IC50 in experiment [1] is under 100 nM. For the same compound, the Kd in experiment [2] turned out to be 17 nM.
The corresponding values for `CC[C@H](C)[C@@H]1NC(=O)[C@@H](NC(=O)[C@H](Cc2ccccc2)NC(=O)[C@H](C)NC(=O)[C@H](CO)NC(=O)[C@H](CCC(N)=O)NC(=O)CNC(C)=O)CSCSC[C@@H](C(=O)N[C@H](C(=O)N[C@@H](CCC(=O)O)C(=O)NCC(=O)N[C@@H](CCC(=O)O)C(=O)NCCOCCOCC(=O)NCCOCCOCC(=O)N[C@@H](CCCCNC(=O)CC[C@H](NC(=O)CNC(=O)CC[C@H](NC(=O)CCCCCCCCCCCCCCCCC(=O)O)C(=O)O)C(=O)O)C(N)=O)[C@@H](C)O)NC(=O)[C@H](CCCNC(=N)N)NC(=O)[C@H](Cc2c[nH]cn2)NC(=O)[C@H](CCC(=O)O)NC(=O)CN(C)C(=O)[C@H](Cc2c[nH]c3ccccc23)NC(=O)[C@H](CC(=O)O)NC(=O)[C@H](CCC(N)=O)NC(=O)[C@H](Cc2cn(C)c3ccccc23)NC1=O` [Compound 28, Ac-GQSAF[C(1)]I[1-Me-Trp]QDW[Sar]EHR[C(1)]TEGE[Peg3][Peg3]-K([17-Carboxy-heptadecanoyl][yGlu]G[yGlu])-NH2] (Ac-GQSAFCI[Trp(1-Me)]QDW[Sar]EHRCTEGE[AEEA][AEEA]K([γGlu-Gly-γGlu-C18 diacid])-NH2; linker 6-16 via CH2) are under 100 nM and 15 nM.
The corresponding values for `CC[C@H](C)[C@@H]1NC(=O)[C@@H](NC(=O)[C@H](Cc2ccccc2)NC(=O)[C@@H](NC(=O)CNC(=O)[C@H](CO)NC(=O)[C@@H](N)CCC(=O)O)C(C)C)CSCSC[C@@H](C(=O)N[C@H](C(=O)N[C@@H](CCC(=O)O)C(=O)NCC(=O)N[C@@H](CCC(=O)O)C(=O)NCCOCCOCC(=O)NCCOCCOCC(=O)N[C@@H](CCCCNC(=O)CC[C@H](NC(=O)CNC(=O)CC[C@H](NC(=O)CCCCCCCCCCCCCCCCC(=O)O)C(=O)O)C(=O)O)C(N)=O)[C@@H](C)O)NC(=O)[C@H](CCCNC(=N)N)NC(=O)[C@H](Cc2c[nH]cn2)NC(=O)[C@H](CCC(=O)O)NC(=O)CN(C)C(=O)[C@H](Cc2c[nH]c3ccccc23)NC(=O)[C@H](CC(=O)O)NC(=O)[C@H](CCC(N)=O)NC(=O)[C@H](Cc2cn(C)c3ccccc23)NC1=O` [Compound 29, H-ESGVF[C(1)]I[1-Me-Trp]QDW[Sar]EHR[C(1)]TEGE[Peg3][Peg3]-K([17-Carboxy-heptadecanoyl][yGlu]G[yGlu])-NH2] (H-ESGVFCI[Trp(1-Me)]QDW[Sar]EHRCTEGE[AEEA][AEEA]K([γGlu-Gly-γGlu-C18 diacid])-NH2; linker 6-16 via CH2) are under 100 nM and 15 nM.
